Test results: PubChem BioAssay AID330 (DTP/NCI, 2004)
Values joined by “and” are separate entries in the source; they are usually repeats but may differ in a detail not shown here. Identical values can stand only once. Inconclusive results and toxic doses are left out. How the source made its calls: active means survival T/C of 150% or more; inactive means T/C below 125% in these data. Peptide text beside a SMILES is read from it.

Test system: P388 leukemia ip, CD2F1 mice, survival T/C
Assay: NCI In Vivo Anticancer Drug Screen. Data for tumor model P388 Leukemia (intraperitoneal) in CD2F1 (CDF1) mice
Conditions: endpoint: median survival time, higher = longer survival
Outline: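 Mice carrying the transplanted tumor received test compound or vehicle. Survival was recorded in each group, and the value is the treated-group measurement divided by that of the vehicle-treated control group.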

[1] = dose: 100.0 mg/kg/injection, schedule: Q01DX001 (ip), vehicle: Klucel (hydroxypropylcellulose) (HPC)
[2] = dose: 200.0 mg/kg/injection, schedule: Q01DX001 (ip), vehicle: Klucel (hydroxypropylcellulose) (HPC)
[3] = dose: 50.0 mg/kg/injection, schedule: Q01DX009 (ip), vehicle: saline with Tween-80
[4] = dose: 100.0 mg/kg/injection, schedule: Q01DX009 (ip), vehicle: saline with Tween-80
[5] = dose: 200.0 mg/kg/injection, schedule: Q01DX009 (ip), vehicle: saline with Tween-80
[6] = dose: 50.0 mg/kg/injection, schedule: Q01DX005 (ip), vehicle: saline with Tween-80
[7] = dose: 100.0 mg/kg/injection, schedule: Q01DX005 (ip), vehicle: saline with Tween-80
[8] = dose: 200.0 mg/kg/injection, schedule: Q01DX005 (ip), vehicle: saline with Tween-80
[9] = dose: 50.0 mg/kg/injection, schedule: Q01DX009 (ip), vehicle: saline

Measured: T/C

CCn1c(Cl)c(/C=N/NC(N)=S)c2ccccc21
inactive: [1] 97 % of control | [2] 91 % of control

CN(C)c1ccc(C(=O)C(O)c2ccccc2Cl)cc1 (stereo not drawn)
inactive: dose: 25.0 mg/kg/injection, schedule: Q01DX009 (ip), vehicle: saline with Tween-80 104 % of control | [3] 96 % of control | [4] 96 % of control | [5] 98 % of control

Cc1ccccc1-n1cccc1C(=O)O
inactive: dose: 60.0 mg/kg/injection, schedule: Q01DX005 (ip), vehicle: saline with Tween-80 95 % of control | dose: 120.0 mg/kg/injection, schedule: Q01DX005 (ip), vehicle: saline with Tween-80 93 % of control | dose: 240.0 mg/kg/injection, schedule: Q01DX005 (ip), vehicle: saline with Tween-80 99 % of control

CN(C)CCNc1cccc2c1C(=O)c1cccc(NCCN(C)C)c1C2=O
inactive: dose: 1.88 mg/kg/injection, schedule: Q01DX009 (ip), vehicle: water 99 % of control | dose: 3.75 mg/kg/injection, schedule: Q01DX009 (ip), vehicle: saline 101 % of control | dose: 3.75 mg/kg/injection, schedule: Q01DX009 (ip), vehicle: water 98 % of control | dose: 7.5 mg/kg/injection, schedule: Q01DX009 (ip), vehicle: saline 102 % of control | dose: 7.5 mg/kg/injection, schedule: Q01DX009 (ip), vehicle: water 110 % of control | dose: 15.0 mg/kg/injection, schedule: Q01DX009 (ip), vehicle: saline 98 % of control | dose: 15.0 mg/kg/injection, schedule: Q01DX009 (ip), vehicle: water 108 % of control | dose: 30.0 mg/kg/injection, schedule: Q01DX009 (ip), vehicle: water 106 % of control

Cc1ccc(NC(=O)C(=O)C(C#N)c2c(Cl)cccc2Cl)c(C)c1 (stereo not drawn)
inactive: [6] 102 % of control | [7] 105 % of control | [8] 105 % of control

O=Nc1c[nH]c(=O)[nH]c1=O
inactive: [9] 97 % of control | dose: 100.0 mg/kg/injection, schedule: Q01DX009 (ip), vehicle: saline 98 % of control | dose: 200.0 mg/kg/injection, schedule: Q01DX009 (ip), vehicle: saline 100 % of control

O=C(NCCCl)Oc1cccn(C(=O)NCCCl)c1=O
inactive: dose: 12.5 mg/kg/injection, schedule: Q01DX009 (sc), vehicle: saline with Tween-80 106 % of control and 111 % of control | dose: 25.0 mg/kg/injection, schedule: Q01DX009 (ip), vehicle: saline 111 % of control and 113 % of control | dose: 25.0 mg/kg/injection, schedule: Q01DX009 (sc), vehicle: saline with Tween-80 100 % of control and 115 % of control | [9] 112 % of control and 118 % of control | dose: 50.0 mg/kg/injection, schedule: Q01DX009 (sc), vehicle: saline with Tween-80 102 % of control and 115 % of control | dose: 100.0 mg/kg/injection, schedule: Q01DX009 (sc), vehicle: saline with Tween-80 109 % of control and 115 % of control | dose: 200.0 mg/kg/injection, schedule: Q01DX009 (sc), vehicle: saline with Tween-80 111 % of control and 123 % of control | dose: 400.0 mg/kg/injection, schedule: Q01DX009 (sc), vehicle: saline with Tween-80 95 % of control

Cc1ccc(C)c(C[n+]2ccccc2C2(C)OCCO2)c1
inactive: [6] 101 % of control | [7] 103 % of control | [8] 100 % of control

NC1CCC2CCCCC2C1 (stereo not drawn)
inactive: dose: 100.0 mg/kg/injection, schedule: Q01DX001 (ip), vehicle: saline 100 % of control | dose: 200.0 mg/kg/injection, schedule: Q01DX001 (ip), vehicle: saline 104 % of control

COCCCN=C(N)N
inactive: dose: 50.0 mg/kg/injection, schedule: Q04DX003 (ip), vehicle: saline 109 % of control | dose: 100.0 mg/kg/injection, schedule: Q04DX003 (ip), vehicle: saline 100 % of control | dose: 200.0 mg/kg/injection, schedule: Q04DX003 (ip), vehicle: saline 95 % of control

COC(=O)C1=C(C(=O)OC)C2(C)C=CC1C1C(OC(C)=O)C(OC(C)=O)C12 (stereo not drawn)
inactive: dose: 100.0 mg/kg/injection, schedule: Q04DX003 (ip), vehicle: Klucel (hydroxypropylcellulose) (HPC) 105 % of control | dose: 200.0 mg/kg/injection, schedule: Q04DX003 (ip), vehicle: Klucel (hydroxypropylcellulose) (HPC) 108 % of control | dose: 400.0 mg/kg/injection, schedule: Q04DX003 (ip), vehicle: Klucel (hydroxypropylcellulose) (HPC) 107 % of control

CCOC(=O)c1ccc(N=NC2Sc3nc4ccccc4n3C2=O)cc1 (stereo not drawn)
inactive: dose: 7.5 mg/kg/injection, schedule: Q01DX005 (ip), vehicle: Klucel (hydroxypropylcellulose) (HPC) 97 % of control | dose: 15.0 mg/kg/injection, schedule: Q01DX005 (ip), vehicle: Klucel (hydroxypropylcellulose) (HPC) 92 % of control | dose: 30.0 mg/kg/injection, schedule: Q01DX005 (ip), vehicle: Klucel (hydroxypropylcellulose) (HPC) 90 % of control

COc1cc2c(cc1OC)C(C(=O)O)C1c3cc4c(cc3CCN1C2=O)OCO4 (stereo not drawn)
inactive: dose: 50.0 mg/kg/injection, schedule: Q04DX003 (ip), vehicle: distilled water + Tween-80 102 % of control and 115 % of control | dose: 100.0 mg/kg/injection, schedule: Q04DX003 (ip), vehicle: distilled water + Tween-80 105 % of control and 100 % of control | dose: 200.0 mg/kg/injection, schedule: Q04DX003 (ip), vehicle: distilled water + Tween-80 113 % of control and 100 % of control | dose: 400.0 mg/kg/injection, schedule: Q04DX003 (ip), vehicle: distilled water + Tween-80 88 % of control and 100 % of control

OCCN(CCO)c1cc2c3ccccc3ccc2c2ccccc12
inactive: dose: 50.0 mg/kg/injection, schedule: Q01DX005 (ip), vehicle: Klucel (hydroxypropylcellulose) (HPC) 87 % of control | dose: 100.0 mg/kg/injection, schedule: Q01DX005 (ip), vehicle: Klucel (hydroxypropylcellulose) (HPC) 103 % of control | dose: 200.0 mg/kg/injection, schedule: Q01DX005 (ip), vehicle: Klucel (hydroxypropylcellulose) (HPC) 98 % of control

CNC(=O)Sc1ccc(Cl)cc1
inactive: dose: 50.0 mg/kg/injection, schedule: Q01DX009 (ip), vehicle: suspension in saline 102 % of control | dose: 100.0 mg/kg/injection, schedule: Q01DX009 (ip), vehicle: suspension in saline 105 % of control | dose: 200.0 mg/kg/injection, schedule: Q01DX009 (ip), vehicle: suspension in saline 113 % of control

CC(C)(C)NCC(O)CSc1nc(-c2ccc(C(N)=O)s2)cs1 (stereo not drawn)
inactive: [3] 100 % of control | [4] 109 % of control | [5] 109 % of control

CC(C)CC(NC(=O)C(N)CCCN=C(N)N)C(=O)O (stereo not drawn) (H-Arg-Leu-OH; configuration not given here)
inactive: dose: 50.0 mg/kg/injection, schedule: Q01DX005 (ip), vehicle: saline 100 % of control | dose: 100.0 mg/kg/injection, schedule: Q01DX005 (ip), vehicle: saline 100 % of control | dose: 200.0 mg/kg/injection, schedule: Q01DX005 (ip), vehicle: saline 106 % of control

O=C(Nc1ccccc1)c1ccco1
inactive: [1] 106 % of control | [2] 102 % of control | dose: 400.0 mg/kg/injection, schedule: Q01DX001 (ip), vehicle: Klucel (hydroxypropylcellulose) (HPC) 96 % of control

COc1ccc(CCN2C(=O)C(=O)N(c3cccc(Cl)c3)C2=O)cc1OC
inactive: dose: 100.0 mg/kg/injection, schedule: Q01DX009 (ip), vehicle: Klucel (hydroxypropylcellulose) (HPC) 86 % of control | dose: 200.0 mg/kg/injection, schedule: Q01DX009 (ip), vehicle: Klucel (hydroxypropylcellulose) (HPC) 92 % of control

C[CH2][Sn]([CH2]C)([S]c1nc(O)cc(=O)[nH]1)[S]c1nc(O)cc(=O)[nH]1
inactive: dose: 1.56 mg/kg/injection, schedule: Q01DX005 (ip), vehicle: Klucel (hydroxypropylcellulose) (HPC) 107 % of control | dose: 3.12 mg/kg/injection, schedule: Q01DX005 (ip), vehicle: Klucel (hydroxypropylcellulose) (HPC) 113 % of control and 119 % of control | dose: 6.25 mg/kg/injection, schedule: Q01DX005 (ip), vehicle: Klucel (hydroxypropylcellulose) (HPC) 118 % of control

O=C(O)C1[N-]CCNC1C(=O)O.[O]=[V][OH] (stereo not drawn)
inactive: [9] 91 % of control

Fc1ccc(N2CSC(=S)N(c3ccc(F)cc3F)C2)c(F)c1
inactive: [6] 107 % of control | [7] 104 % of control | [8] 95 % of control

CCC(c1ccc(OC(=O)Cc2ccc(N(CCCl)CCCl)cc2)cc1)C(CC)c1ccc(OC(=O)Cc2ccc(N(CCCl)CCCl)cc2)cc1 (stereo not drawn)
inactive: dose: 80.0 mg/kg/injection, schedule: Q01DX009 (ip), vehicle: saline with Tween-80 92 % of control | dose: 120.0 mg/kg/injection, schedule: Q01DX009 (ip), vehicle: saline with Tween-80 93 % of control | dose: 180.0 mg/kg/injection, schedule: Q01DX009 (ip), vehicle: saline with Tween-80 89 % of control | dose: 270.0 mg/kg/injection, schedule: Q01DX009 (ip), vehicle: saline with Tween-80 90 % of control | dose: 405.0 mg/kg/injection, schedule: Q01DX009 (ip), vehicle: saline with Tween-80 92 % of control
